Results reported in PubChem BioAssay AID1259407 (Chemical Carcinogenesis Research Information System (CCRIS), 2018).
Active and inactive are the calls of the source. No rule for the calls is given here.

System: CCRIS mutagenicity, Ames/micronucleus/aberration tests
Test: CCRIS mutagenicity studies

## CC1(C)C(=O)[C@]2(C)CC[C@H]1C2
Test System: AMES SALMONELLA TYPHIMURIUM, Strain/Indicator: TA98, Metabolic Activation: HAMSTER, LIVER, S-9, AROCLOR 1254, Method: STANDARD PLATE
  mutagenic call: inactive; negative
Test System: AMES SALMONELLA TYPHIMURIUM, Strain/Indicator: TA98, Metabolic Activation: NONE, Method: STANDARD PLATE
  mutagenic call: inactive; negative
Test System: AMES SALMONELLA TYPHIMURIUM, Strain/Indicator: TA98, Metabolic Activation: RAT, LIVER, S-9, AROCLOR 1254, Method: STANDARD PLATE
  mutagenic call: inactive; negative
Test System: AMES SALMONELLA TYPHIMURIUM, Strain/Indicator: TA100, Metabolic Activation: HAMSTER, LIVER, S-9, AROCLOR 1254, Method: STANDARD PLATE
  mutagenic call: inactive; negative
Test System: AMES SALMONELLA TYPHIMURIUM, Strain/Indicator: TA100, Metabolic Activation: NONE, Method: STANDARD PLATE
  mutagenic call: inactive; negative
Test System: AMES SALMONELLA TYPHIMURIUM, Strain/Indicator: TA100, Metabolic Activation: RAT, LIVER, S-9, AROCLOR 1254, Method: STANDARD PLATE
  mutagenic call: inactive; negative
Test System: AMES SALMONELLA TYPHIMURIUM, Strain/Indicator: TA102, Metabolic Activation: HAMSTER, LIVER, S-9, AROCLOR 1254, Method: STANDARD PLATE
  mutagenic call: inactive; negative
Test System: AMES SALMONELLA TYPHIMURIUM, Strain/Indicator: TA102, Metabolic Activation: NONE, Method: STANDARD PLATE
  mutagenic call: inactive; negative
Test System: AMES SALMONELLA TYPHIMURIUM, Strain/Indicator: TA102, Metabolic Activation: RAT, LIVER, S-9, AROCLOR 1254, Method: STANDARD PLATE
  mutagenic call: inactive; negative
Test System: AMES SALMONELLA TYPHIMURIUM, Strain/Indicator: TA1535, Metabolic Activation: HAMSTER, LIVER, S-9, AROCLOR 1254, Method: STANDARD PLATE
  mutagenic call: inactive; negative
Test System: AMES SALMONELLA TYPHIMURIUM, Strain/Indicator: TA1535, Metabolic Activation: NONE, Method: STANDARD PLATE
  mutagenic call: inactive; negative
Test System: AMES SALMONELLA TYPHIMURIUM, Strain/Indicator: TA1535, Metabolic Activation: RAT, LIVER, S-9, AROCLOR 1254, Method: STANDARD PLATE
  mutagenic call: inactive; negative
Test System: AMES SALMONELLA TYPHIMURIUM, Strain/Indicator: TA1537, Metabolic Activation: HAMSTER, LIVER, S-9, AROCLOR 1254, Method: STANDARD PLATE
  mutagenic call: inactive; negative
Test System: AMES SALMONELLA TYPHIMURIUM, Strain/Indicator: TA1537, Metabolic Activation: NONE, Method: STANDARD PLATE
  mutagenic call: inactive; negative
Test System: AMES SALMONELLA TYPHIMURIUM, Strain/Indicator: TA1537, Metabolic Activation: RAT, LIVER, S-9, AROCLOR 1254, Method: STANDARD PLATE
  mutagenic call: inactive; negative
Test System: Mouse lymphoma, Strain/Indicator: L5178Y (tk+/tk-), Metabolic Activation: None, Method: Suspension/plate
  mutagenic call: inactive; negative
Test System: Mouse lymphoma, Strain/Indicator: L5178Y (tk+/tk-), Metabolic Activation: Rat, Liver, S-9, Aroclor 1254, Method: Suspension/plate
  mutagenic call: active; positive
